# In article PMC4285139, “Target discovery of acivicin in cancer cells elucidates its mechanism of growth inhibition” (Chemical Science, 2014):
# Key:
# [1] = molecular target: T1, ALDH4A1 (Homo sapiens, UniProt P30038); experiment: pre-incubation of native enzyme blocks probe labelling (competitive ABPP); format: cell-based
# T1 sequence (P30038 25-563): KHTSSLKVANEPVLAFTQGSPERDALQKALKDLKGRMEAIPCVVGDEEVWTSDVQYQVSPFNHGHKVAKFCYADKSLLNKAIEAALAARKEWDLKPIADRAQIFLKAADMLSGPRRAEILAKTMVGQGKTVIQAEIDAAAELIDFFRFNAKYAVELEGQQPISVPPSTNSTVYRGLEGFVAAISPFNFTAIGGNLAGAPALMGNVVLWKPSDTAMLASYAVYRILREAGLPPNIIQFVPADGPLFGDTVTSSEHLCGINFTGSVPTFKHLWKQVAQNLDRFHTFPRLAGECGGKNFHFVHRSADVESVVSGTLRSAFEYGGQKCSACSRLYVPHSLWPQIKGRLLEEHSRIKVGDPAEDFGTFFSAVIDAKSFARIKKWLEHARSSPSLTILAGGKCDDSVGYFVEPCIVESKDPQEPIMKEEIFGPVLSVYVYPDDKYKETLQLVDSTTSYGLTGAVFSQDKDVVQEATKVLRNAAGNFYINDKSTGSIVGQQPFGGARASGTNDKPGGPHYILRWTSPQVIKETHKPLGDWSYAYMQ
# [2] = molecular target: T1, ALDH4A1; experiment: enzyme inhibition assay with purified recombinant enzyme ([…] min pre-incubation); also ABPP labelling, lost in the Cys348Ala mutant; format: biochemical
# [3] = molecular target: T1, ALDH4A1; experiment: enzyme inhibition assay with purified recombinant enzyme ([…] min pre-incubation); also competitive ABPP labelling in HepG2 lysate and cells; format: biochemical
# [4] = molecular target: T2, ALDH1A1 (Homo sapiens, UniProt P00352); experiment: enzyme inhibition assay with purified recombinant enzyme ([…] min pre-incubation); format: biochemical
# T2 sequence (P00352 2-501): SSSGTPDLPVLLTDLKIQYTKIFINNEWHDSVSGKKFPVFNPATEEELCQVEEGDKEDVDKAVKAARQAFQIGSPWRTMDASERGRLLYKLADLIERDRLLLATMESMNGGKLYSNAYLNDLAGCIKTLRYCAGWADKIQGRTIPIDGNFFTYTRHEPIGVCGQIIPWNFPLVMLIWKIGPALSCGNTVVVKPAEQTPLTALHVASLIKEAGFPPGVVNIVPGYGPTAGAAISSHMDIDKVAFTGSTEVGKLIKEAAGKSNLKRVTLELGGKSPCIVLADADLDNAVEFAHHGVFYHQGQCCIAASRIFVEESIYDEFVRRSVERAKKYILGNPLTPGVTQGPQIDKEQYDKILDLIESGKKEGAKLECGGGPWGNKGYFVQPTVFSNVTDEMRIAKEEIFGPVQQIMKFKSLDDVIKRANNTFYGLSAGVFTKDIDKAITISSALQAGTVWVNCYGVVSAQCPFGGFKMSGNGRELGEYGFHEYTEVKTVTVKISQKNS
compound,measurement,setting,value
CCN(CC)C(=S)SSC(=S)N(CC)CC [disulfiram],pre-incubation of native enzyme blocks probe labelling (competitive ABPP),[1],pre-incubation of the native enzyme with the ALDH inhibitor disulfiram resulted in a lack of labeling
C#CCCCC(=O)N[C@H](C(=O)O)[C@@H]1CC(Cl)=NO1 [ACV1],IC50,[2],0.7 µM
"N[C@H](C(=O)O)[C@@H]1CC(Cl)=NO1 [ACV, Acivicin]",IC50,[3],5.4 µM
C#CCNC(=O)[C@@H](N)[C@@H]1CC(Cl)=NO1 [ACV2],IC50,[4],55 µM
C#CCCCC(=O)OC[C@H]1CC(Br)=NO1 [ACVL1],IC50,[4],0.3 µM
